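Following 48 hours of exposure in 96-well plates, responses at five concentrations were used to interpolate endpoints linearly. TGI: total growth inhibition.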
Assays:
Experiment in all cases: NCI tumour cell line growth inhibition, 48 h
SR leukemia = tested on: SR leukemia
SF-268 CNS = tested on: SF-268 CNS
COLO 205 colon = tested on: COLO 205 colon
MALME-3M melanoma = tested on: MALME-3M melanoma
SW-620 colon = tested on: SW-620 colon
SK-OV-3 ovarian = tested on: SK-OV-3 ovarian
786-0 renal = tested on: 786-0 renal
MDA-MB-435 = tested on: MDA-MB-435
IGROV1 ovarian = tested on: IGROV1 ovarian
NCI/ADR-RES ovarian = tested on: NCI/ADR-RES ovarian

Measured: TGI

COc1ccc(C(=O)NCCN(C)C)c2nc3ccccc3cc12
1.5 µM: SR leukemia
5.13 µM: MDA-MB-435
2.57 µM: COLO 205 colon
5.22 µM: NCI/ADR-RES ovarian
2.3 µM: MALME-3M melanoma
9.82 µM: SF-268 CNS
6.18 µM: IGROV1 ovarian
8.69 µM: SK-OV-3 ovarian
12.1 µM: 786-0 renal
5.06 µM: SW-620 colon

CC(C)(C)OC(=O)NC(CSSCC(NC(=O)OC(C)(C)C)C(=O)O)C(=O)O (stereo not given)
> 100 µM: all assays above

O=C(O)C(O)C(O)C(O)C(O)CO (stereo not given)
> 100 µM: all assays above

OCCCc1ccc2c(c1)[C@H](CO)[C@@H](c1ccc(O)cc1)O2
29.2 µM: MALME-3M melanoma
> 100 µM: all other assays above

Cc1ccc(/C=C2/N=C(N/N=C\C(O)C(O)C(O)C(O)CO)NC2=O)cc1 (stereo not given)
> 100 µM: all assays above

CCOc1c(OC)cc(-c2nc3n(n2)C(=O)C(CC)S3)cc1OC (stereo not given)
> 10 µM: all assays above

Cn1c2ccccc2c2c(=S)c3ccccc3ccc21
> 100 µM: all assays above

CCN(CC)c1ccc(/C=C/c2ccnc3ccccc23)cc1
> 100 µM: all assays above

Nc1ncc2c(n1)-c1ccccc1OC2N1CCCC1 (stereo not given)
> 100 µM: all assays above

O=C(c1ccccc1)c1ccc2c(c1)NC(=O)c1ccccc1SSc1ccccc1C(=O)N2
> 100 µM: all assays above

Cc1nc2ccccc2c(-n2cccn2)c1CCn1cccn1
> 100 µM: all assays above

O=C(CNc1ccc(Cl)cc1Cl)Nn1c(-c2ccccc2)nc2ccccc2c1=O
> 100 µM: SR leukemia | SK-OV-3 ovarian
34.6 µM: MALME-3M melanoma
30.2 µM: MDA-MB-435
35.1 µM: 786-0 renal
36.1 µM: COLO 205 colon
42.2 µM: IGROV1 ovarian
34.4 µM: SW-620 colon
52.9 µM: NCI/ADR-RES ovarian
21.6 µM: SF-268 CNS

CCOC(=O)/C(C(C)=O)=C(\OC(C)=O)c1ccncc1C(=O)O
> 100 µM: all assays above

Cc1ccc2c(c1)c1ccc3c(c1n2C)C(=O)C=CC3=O
3.16 µM: COLO 205 colon
> 7.53 µM: NCI/ADR-RES ovarian
3.8 µM: MALME-3M melanoma
0.871 µM: SR leukemia
5.15 µM: MDA-MB-435
3.44 µM: 786-0 renal
2.37 µM: SW-620 colon
> 10 µM: all other assays above

CC12c3c4ccc(C=O)c3Oc3ccc(C=O)c(c31)Oc1ccc(C=O)c(c12)O4
> 25 µM: all assays above

CN1CCN(Cc2cc3c(nn2)-c2ccccc2C3=O)CC1
39.2 µM: MALME-3M melanoma
34.3 µM: COLO 205 colon
50.2 µM: MDA-MB-435
> 100 µM: all other assays above

CC(C)(C)N=C(N)NC#N
> 100 µM: all assays above

— PubChem BioAssay (NCI)
